Data from patent US20160199351A1, “COMPOSITIONS AND METHODS FOR INHIBITING FUNGAL INFECTIONS” (priority 2015, published 2016).
Values after ≈ are worked out from the molar mass of the structure shown. Where two headings read alike, the source gives them in different places.

Tests used:
C. guilliermondii = test: MIC against Candida species (Table 4); settings: Meyerozyma guilliermondii
Histoplasma capsulatum [1] = test: organism not typed; type: cell-based
Fusarium sp. = test: MIC (Table 5); type: cell-based; settings: for MIC / MIC50: Fusarium; for MIC: read-out: MIC 100%
Blastomyces dermatitidis = test: MIC (Table 6); type: cell-based; settings: for MIC: read-out: MIC 100%
Cryptococcus neoformans = test: MIC against Cryptococcus neoformans (Table 4); settings: for MIC50 / MIC: Cryptococcus neoformans; for MIC: read-out: MIC 100%
C. krusei = test: MIC against Candida species (Table 4); settings: Pichia kudriavzevii; for MIC: read-out: MIC 100%
Histoplasma capsulatum [2] = type: cell-based; settings: 24-hour treatment
P. variotii = test: MIC (Table 5); settings: Paecilomyces variotii; for MIC: read-out: MIC 100%
Apophysomyces = test: MIC, CLSI M38-A2 broth dilution (Table 1); type: cell-based

SMILES: NCC(=O)Nc1ccc(-n2nc(C(F)(F)F)cc2-c2ccc3c(ccc4ccccc43)c2)cc1 [AR-12, 2-amino-N-(4-(5-(phenanthren-2-yl)-3-(trifluoromethyl)-1H-pyrazol-1-yl)phenyl)acetamide]
- MIC (C. guilliermondii; 24 h, read-out: MIC 100%, isolate Cgu-7, 24 hrs): 2 µg/mL (≈ 4.34 µM)
- MIC50 (C. guilliermondii; 48 h, isolate Cgu-1, 48 hrs): 4 µg/mL (≈ 8.69 µM)
- MIC50 (C. guilliermondii; 48 h, isolate Cgu-2, 48 hrs): 2 µg/mL (≈ 4.34 µM)
- MIC50 (C. guilliermondii; 48 h, isolate Cgu-3, 48 hrs): 2 µg/mL (≈ 4.34 µM)
- MIC50 (C. guilliermondii; 48 h, isolate Cgu-4, 48 hrs): 2 µg/mL (≈ 4.34 µM)
- MIC50 (C. guilliermondii; 48 h, isolate Cgu-5, 48 hrs): 4 µg/mL (≈ 8.69 µM)
- MIC50 (C. guilliermondii; 48 h, isolate Cgu-6, 48 hrs): 4 µg/mL (≈ 8.69 µM)
- MIC50 (C. guilliermondii; 48 h, isolate Cgu-7, 48 hrs): 4 µg/mL (≈ 8.69 µM)
- MIC (C. guilliermondii; 48 h, read-out: MIC 100%, isolate Cgu-1, 48 hrs): 4 µg/mL (≈ 8.69 µM)
- MIC (C. guilliermondii; 48 h, read-out: MIC 100%, isolate Cgu-2, 48 hrs): 4 µg/mL (≈ 8.69 µM)
- MIC (C. guilliermondii; 48 h, read-out: MIC 100%, isolate Cgu-3, 48 hrs): 4 µg/mL (≈ 8.69 µM)
- MIC (C. guilliermondii; 48 h, read-out: MIC 100%, isolate Cgu-4, 48 hrs): 2 µg/mL (≈ 4.34 µM)
- MIC (C. guilliermondii; 48 h, read-out: MIC 100%, isolate Cgu-5, 48 hrs): 4 µg/mL (≈ 8.69 µM)
- MIC (C. guilliermondii; 48 h, read-out: MIC 100%, isolate Cgu-6, 48 hrs): 4 µg/mL (≈ 8.69 µM)
- MIC (C. guilliermondii; 48 h, read-out: MIC 100%, isolate Cgu-7, 48 hrs): 4 µg/mL (≈ 8.69 µM)
- MIC (Histoplasma capsulatum [1]; read-out: MIC, concentration resulting in 50% inhibition of yeast growth): 5.4 µM (≈ 2.49 µg/mL)
- MIC (Histoplasma capsulatum [1]; read-out: MIC, concentration resulting in 90% inhibition of yeast growth): 15.9 µM (≈ 7.32 µg/mL)
- concentration that effectively prevents growth (Histoplasma capsulatum [1]; stated for all three fungi): 8 to 40 µM
- MIC (Fusarium sp.; 24 h, isolate F-1, 24 hrs): 2 µg/mL (≈ 4.34 µM)
- MIC (Fusarium sp.; 24 h, isolate F-2, 24 hrs): 2 µg/mL (≈ 4.34 µM)
- MIC (Fusarium sp.; 24 h, isolate F-3, 24 hrs): 2 µg/mL (≈ 4.34 µM)
- MIC50 (Fusarium sp.; isolate F-1, 48/72 hrs): 4 µg/mL (≈ 8.69 µM)
- MIC (Fusarium sp.; isolate F-1, 48/72 hrs): 4 µg/mL (≈ 8.69 µM)
- MIC (Fusarium sp.; isolate F-2, 48/72 hrs): 4 µg/mL (≈ 8.69 µM)
- MIC (Fusarium sp.; isolate F-3, 48/72 hrs): 4 µg/mL (≈ 8.69 µM)
- MIC50 (Fusarium sp.; isolate F-1, 24 hrs): 2 µg/mL (≈ 4.34 µM)
- MIC 50% (Fusarium sp.; isolate F-2, 48/72 hrs): 4 µg/mL (≈ 8.69 µM)
- MIC 50% (Fusarium sp.; isolate F-2, 24 hrs): 2 µg/mL (≈ 4.34 µM)
- MIC 50% (Fusarium sp.; isolate F-3, 48/72 hrs): 4 µg/mL (≈ 8.69 µM)
- MIC 50% (Fusarium sp.; isolate F-3, 24 hrs): 2 µg/mL (≈ 4.34 µM)
- MIC50 (Blastomyces dermatitidis; isolate BD1, 72/192 hrs): 0.25 µg/mL (≈ 0.543 µM)
- MIC (Blastomyces dermatitidis; isolate BD1, 72/192 hrs): 0.5 µg/mL (≈ 1.09 µM)
- MIC50 (Blastomyces dermatitidis; isolate BD2, 72/192 hrs): 2 µg/mL (≈ 4.34 µM)
- MIC (Blastomyces dermatitidis; isolate BD2, 72/192 hrs): 2 µg/mL (≈ 4.34 µM)
- MIC50 (Blastomyces dermatitidis; isolate BD3, 72/192 hrs): 1 µg/mL (≈ 2.17 µM)
- MIC (Blastomyces dermatitidis; isolate BD3, 72/192 hrs): 2 µg/mL (≈ 4.34 µM)
- MIC50 (Cryptococcus neoformans; 48 h, isolate CN-1, 48 hrs): 2 µg/mL (≈ 4.34 µM)
- MIC50 (Cryptococcus neoformans; 48 h, isolate CN-2, 48 hrs): 4 µg/mL (≈ 8.69 µM)
- MIC50 (Cryptococcus neoformans; 48 h, isolate CN-3, 48 hrs): 4 µg/mL (≈ 8.69 µM)
- MIC (Cryptococcus neoformans; 48 h): 4 µg/mL (≈ 8.69 µM)
- MIC50 (Cryptococcus neoformans; 72 h, isolate CN-1, 72 hrs): 4 µg/mL (≈ 8.69 µM)
- MIC50 (Cryptococcus neoformans; 72 h, isolate CN-2, 72 hrs): 4 µg/mL (≈ 8.69 µM)
- MIC50 (Cryptococcus neoformans; 72 h, isolate CN-3, 72 hrs): 4 µg/mL (≈ 8.69 µM)
- MIC (Cryptococcus neoformans; 72 h): 4 µg/mL (≈ 8.69 µM)
- MIC 100% (Cryptococcus neoformans; isolate CN-2, 48 hrs): 4 µg/mL (≈ 8.69 µM)
- MIC 100% (Cryptococcus neoformans; isolate CN-2, 72 hrs): 4 µg/mL (≈ 8.69 µM)
- MIC 100% (Cryptococcus neoformans; isolate CN-3, 48 hrs): 4 µg/mL (≈ 8.69 µM)
- MIC 100% (Cryptococcus neoformans; isolate CN-3, 72 hrs): 4 µg/mL (≈ 8.69 µM)
- MIC50 (C. krusei; 24 h): 2 µg/mL (≈ 4.34 µM)
- MIC (C. krusei; 24 h): 4 µg/mL (≈ 8.69 µM)
- MIC50 (C. krusei; 48 h): 4 µg/mL (≈ 8.69 µM)
- MIC (C. krusei; 48 h): 4 µg/mL (≈ 8.69 µM)
- reduction of fungal viability (Histoplasma capsulatum [2]; then growth in absence of drug): about 1000 fold
- viability staining of yeasts (Histoplasma capsulatum [2]; ethidium bromide / fluorescein staining): loss of yeast viability
- MIC50 (P. variotii): 4 µg/mL (≈ 8.69 µM)
- MIC50 (P. variotii; 24 h): 2 µg/mL (≈ 4.34 µM)
- MIC (P. variotii; 24 h): 4 µg/mL (≈ 8.69 µM)
- MIC (P. variotii): 4 µg/mL (≈ 8.69 µM)
- MIC 50% (Apophysomyces; isolate A1, 24 hours): 2 gg/m1
- MIC 100% (Apophysomyces; isolate A1, 24 hours): >16 gg/m1
- MIC 50% (Apophysomyces; isolate A2, 24 hours): 2 gg/m1
- MIC 100% (Apophysomyces; isolate A2, 24 hours): >16 gg/m1
